The source of these data is patent EP0938474B1, “CYCLOPROPYLINDOLE COMPOUNDS AND THEIR USE AS PRODRUGS” (AUCKLAND UNISERVICES LIMITED, priority 1996, dated 1998).

The subject of assay [1] is human colon NR-(wild-type) line WIDR. Kind of assay: Cytotoxicity in untransfected control cells (NR-), nitroreductase activation test. As to conditions: IC50, unit inferred, read-out: Human colon lines NR-. It counts as cell-based. The text has this: (§1) Compounds of the invention were further tested against human cell lines (NR+ in Table 3) transfected with a gene encoding a bacterial nitroreductase (NR) enzyme to test for activation of compounds of the invention with NR. Untransfected control cells (NR- in Table 3) were used as controls. The cells used were the human colon NR-(wild-type) line WIDR and its transfected NR+ counterpart WC14.10; and the human ovarian NR- (wild-type) line SKOV3 together with its NR+ (transfected) counterpart SC3.2. The results are shown in Table 3, which also indicates the ratios of IC50s. These are intra-experiment values, and may differ slightly from those calculated from the given NR- and NR+ values.

Assay [2] has as its system human ovarian NR- (wild-type) line SKOV3. The description is as above. It counts as cell-based. The conditions noted are these: SK-OV-3, IC50, unit inferred, read-out: Human ovarian lines NR-.
Text: as §1

The next assay has as its system WC14.10. Kind of assay: Cytotoxicity in cells transfected with bacterial nitroreductase (NR+). The conditions noted are these: Homo sapiens; WC14.10 (NR+ transfected counterpart of WIDR); IC50, unit inferred; read-out: Human colon lines NR+. Format: cell-based.
Text: as §1

The test system of the next assay is SC3.2. The assay is described as above. Format: cell-based. As to conditions: Homo sapiens, SK-OV-3; SC3.2 (NR+ transfected counterpart of SKOV3); IC50, unit inferred; read-out: Human ovarian lines NR+.
Text: as §1

For assay [3] the following is noted: background statement, test system not given; cited from earlier work.

For `CN(C)CCOc1ccc2[nH]c(C(=O)N3CC(CCl)c4c3cc([N+](=O)[O-])c3ccccc43)cc2c1` (centres unmarked) [14e, 1-(chloromethyl)-3-[[5-[2-(dimethylamino)-ethoxy]indol-2-yl]carbonyl] -5-nitro-1,2-dihydro-3H-benz [e] indole], the IC50 in assay [1] was determined as 370 nM; in assay [2], 1000 nM; in the assay with WC14.10, 130 nM; with SC3.2, 90 nM.
With `CCCC(=O)Nc1cc(/C=C/C(=O)N2CC(CCl)c3c2cc([N+](=O)[O-])c2ccccc32)n(C)c1` (centres unmarked) [14i, 3-[(E)-4-(butyrylamino)-1-methyl-2-pyrroleacryloyl]-1-(chloromethyl)-5-nitro-1,2-dihydro-3H-benz [e] indole], the IC50 in assay [1] stood at 2200 nM; in assay [2], 4300 nM; in the assay on WC14.10, 600 nM; with SC3.2 it was 390 nM.
As for `COc1cccc(/C=C/C(=O)N2CC(CCl)c3c2cc([N+](=O)[O-])c2ccccc32)c1` (centres unmarked) [14l, 1-(chloromethyl)-3-[(E)-3-methoxycinnamoyl]-5-nitro-1,2-dihydro-3H-benz[e]iadole], the IC50 in assay [1] came out at 140 nM; in assay [2], 130 nM; in the assay with WC14.10, 80 nM; in the assay on SC3.2 it was 40 nM.
As for `COc1cc2cc(C(=O)N3CC(COS(C)(=O)=O)c4c3cc([N+](=O)[O-])c3ccccc43)[nH]c2c(OC)c1OC` (centres unmarked) [14o, 1-[(methanesulfonyloxy)methyl]-5-nitro-3-[(5,6,7-trimethoxyindol-2-yl)carbonyl]-1,2-dihydro-3H-benz[e]indole], the IC50 worked out at 410 nM in assay [1], 410 nM in assay [2], 60 nM with WC14.10 and 50 nM with SC3.2.
`COc1cc2cc(C(=O)N3CC(CCl)c4c3cc(NC(=O)OCc3ccc([N+](=O)[O-])cc3)c3ccccc43)[nH]c2c(OC)c1OC` (centres unmarked) [15r, 1-(chloromethyl)-5-[(4-nitrobenzyloxycarbonyl)amino]-3-[(5,6,7-trimethoxyindol-2-yl)carbonyl]-1,2 - dihydro-3H-benz[e] indole]: the IC50 in assay [1] is 390 nM; in assay [2] it was 62 nM; in the assay on WC14.10 it was 12 nM; with SC3.2 it was 5.4 nM.
Take `COC(=O)c1cc2c3c(cc(NC(=O)OCc4ccc([N+](=O)[O-])cc4)c2[nH]1)N(C(=O)c1cc2cc(OC)c(OC)c(OC)c2[nH]1)CC3CCl` (centres unmarked) [32d, methyl 1-(chloromethyl) -5-[(4-nitrobenzyloxycarbonyl) -amino] -3-[(5,6,7-trimethoxyindol-2-yl)carbonyl]-1,2-dihydro-3H-pyrrolo[3,2-e]indole-7-carboxylate]: the IC50 in assay [1] came out at 490 nM; in assay [2] it was 1100 nM; in the assay on WC14.10 it was 260 nM; with SC3.2, 270 nM.
Regarding `COc1c(O)c2c(c3cc(C(=O)N4CCc5c4c(O)c(OC)c4[nH]c(C(=O)N6CC7CC78C6=CC(=O)c6[nH]cc(C)c68)cc54)[nH]c13)CCN2C(N)=O` (centres unmarked) [CC-1065], the “IC50's” value in assay [3] is given as “low pM range”.
For the compound `COC(=O)c1cc2c3c(cc([N+](=O)[O-])c2[nH]1)N(C(=O)c1cc2cc(OC)c(OC)c(OC)c2[nH]1)CC3CCl` (centres unmarked) [compound 31, methyl 1-(chloromethyl)-5-nitro-3-[(5,6,7-trimethoxyindol-2-yl)carbonyl]-1,2-dihydro-3H-pyrrolo[3,2-e]indole-7-carboxylate], the IC50 turned out to be 400 nM in assay [1], 60 nM in assay [2], 10 nM in the assay on WC14.10 and 5 nM in the assay with SC3.2.
